From patent publication US12291518B2, “Thyroid hormone receptor agonists and use thereof” (Eccogene Inc., priority 2020, dated 2025) come the findings set out here.

Molecules are shown by their SMILES.

By EC50 is commonly meant the concentration that produces a half-maximal response.

One assay has as its target T1, THR beta-LBD (Homo sapiens, UniProt P10828).
T1 construct: THR beta-LBD (the final concentration is 0.5 nM) was added to the 384-well assay plate; purchased Invitrogen PV4686
T1 sequence (P10828 217-461 limits assumed): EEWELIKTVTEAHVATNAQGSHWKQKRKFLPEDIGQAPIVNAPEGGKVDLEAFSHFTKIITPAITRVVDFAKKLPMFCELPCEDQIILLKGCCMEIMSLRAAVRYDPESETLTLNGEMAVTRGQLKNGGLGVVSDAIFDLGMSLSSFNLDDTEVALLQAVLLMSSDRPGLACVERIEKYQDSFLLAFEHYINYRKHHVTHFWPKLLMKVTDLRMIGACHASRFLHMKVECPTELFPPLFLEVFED
The assay can be described thus: THR-β Coactivator Peptide Recruitment Assay (LanthaScreen TR-FRET). The format is biochemical. To be noted: TR-FRET coactivator recruitment, THR beta-LBD 0.5 nM; for EC50: read-out: THRβ EC50. The gist of the method: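 Agonist-driven coactivator recruitment read as a 520/495 nm TR-FRET emission ratio after 2 h at room temperature. Final concentrations: THR beta-LBD 0.5 nM, fluorescein-SRC2-2 peptide 0.1 nM, terbium anti-GST antibody 2 nM. EC50 from four-parameter dose-response fitting.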
A general note: TR-FRET usually uses a lanthanide donor and a delayed reading to cut background.

The next assay has as its target T2, THR alpha-LBD (Homo sapiens, UniProt P10827).
T2 construct: except that THR alpha-LBD of a final concentration 0.25 nM was used; purchased Invitrogen PV4687
The assay can be described thus: THR-α Coactivator Peptide Recruitment Assay (LanthaScreen TR-FRET). Format: biochemical. The conditions noted are these: TR-FRET coactivator recruitment, THR alpha-LBD 0.25 nM; for EC50: read-out: THRα EC50. The gist of the method: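 TR-FRET coactivator recruitment with THR alpha-LBD at 0.25 nM final, Fluorescein-SRC2-2 peptide 0.1 nM and Tb-labeled anti-GST antibody 2 nM; 2 h incubation at room temperature. 520/495 nm emission ratio fitted to a four-parameter sigmoidal curve to give EC50.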

T2 sequence (P10827 163-410 isoform P10827-2 limits assumed, other chains not shown): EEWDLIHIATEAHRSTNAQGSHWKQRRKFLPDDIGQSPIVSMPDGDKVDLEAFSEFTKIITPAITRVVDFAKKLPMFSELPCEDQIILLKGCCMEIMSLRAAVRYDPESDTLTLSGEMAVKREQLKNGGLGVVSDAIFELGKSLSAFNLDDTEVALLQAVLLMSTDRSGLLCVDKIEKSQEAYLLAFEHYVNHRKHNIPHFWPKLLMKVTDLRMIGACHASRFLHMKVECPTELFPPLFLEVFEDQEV

For `CS(=O)(=O)[C@H]1C[C@H](NS(=O)(=O)c2cc(Oc3c(Cl)cc(-n4nc(C(F)F)c(=O)[nH]c4=O)cc3Cl)ccc2O)C1` [Compound 82, 5-(2,6-dichloro-4-(6-(difluoromethyl)-3,5-dioxo-4,5-dihydro-1,2,4-triazin-2(3H)-yl)phenoxy)-2-hydroxy-N-((1r,3r)-3-(methylsulfonyl)cyclobutyl)benzenesulfonamide], at THR beta-LBD, the “THRβ Emax” value is on record as “B (75~90)” and the EC50 is 20 to 100 nM. At THR alpha-LBD, the “THRα Emax” value was “B (40~85)” and the 50% effective concentration (EC50) is over 1000 nM.

In the case of `O=c1[nH]c(=O)n(-c2cc(Cl)c(Oc3ccc(O)c(S(=O)(=O)N4CCC4)c3)c(Cl)c2)nc1C(F)F` [Compound 28, 2-(4-(3-(azetidin-1-ylsulfonyl)-4-hydroxyphenoxy)-3,5-dichlorophenyl)-6-(difluoromethyl)-1,2,4-triazine-3,5(2H,4H)-dione], on THR beta-LBD, the “THRβ Emax” value is given as “B (75~90)” and the EC50 was under 2 nM. Further, at THR alpha-LBD, the “THRα Emax” value is listed as “A (85~110)” and the concentration for a half-maximal effect (EC50) is under 2 nM.

With `O=C(N[C@H]1CCN(S(=O)(=O)c2cc(Oc3c(Cl)cc(-n4nc(C(F)F)c(=O)[nH]c4=O)cc3Cl)ccc2O)C1)C1CC1` [Compound 56, (S)-N-(1-((5-(2,6-dichloro-4-(6-(difluoromethyl)-3,5-dioxo-4,5-dihydro-1,2,4-triazin-2(3H)-yl)phenoxy)-2-hydroxyphenyl)sulfonyl)pyrrolidin-3-yl)cyclopropanecarboxamide], at THR beta-LBD, the “THRβ Emax” value was “C (<75)” and the half-maximal effective concentration (EC50) is under 2 nM. In addition, at THR alpha-LBD, the “THRα Emax” value is listed as “B (40~85)” and the EC50 lay within 2 to 200 nM.

With `O=c1[nH]c(=O)n(-c2cc(Cl)c(Oc3ccc(O)c(S(=O)(=O)NC4CS(=O)(=O)C4)c3)c(Cl)c2)nc1C(F)F` [Compound 83, 5-(2,6-dichloro-4-(6-(difluoromethyl)-3,5-dioxo-4,5-dihydro-1,2,4-triazin-2(3H)-yl)phenoxy)-N-(1,1-dioxidothietan-3-yl)-2-hydroxybenzenesulfonamide], on THR beta-LBD, the “THRβ Emax” value is given as “A (90~110)” and the EC50 is under 2 nM. Moreover, at THR alpha-LBD, the “THRα Emax” value was “A (85~110)” and the concentration giving a half-maximal response (EC50) was in the range of 2 to 200 nM.

In the case of `C[C@]1(NS(=O)(=O)c2cc(Oc3c(Cl)cc(-n4nc(C(F)F)c(=O)[nH]c4=O)cc3Cl)ncc2O)C[C@H](O)C1` [Compound 168, 2-[2,6-dichloro-4-[6-(difluoromethyl)-3,5-dioxo-1,2,4-triazin-2-yl]phenoxy]-5-hydroxy-N-(3-hydroxy-1-methyl-cyclobutyl)pyridine-4-sulfonamide], at THR beta-LBD, the “THRβ Emax” value is “A (90~110)” and the half-maximal effective concentration (EC50) was in the range of 2 to 20 nM. Besides, on THR alpha-LBD, the “THRα Emax” value is reported as “A (85~110)” and the EC50 lay within 2 to 200 nM.

As to `N#C[C@H]1C[C@@H](NS(=O)(=O)c2cc(Oc3c(Cl)cc(-n4nc(C(F)F)c(=O)[nH]c4=O)cc3Cl)ccc2O)C1` [Compound 69, N-((1s,3s)-3-cyanocyclobutyl)-5-(2,6-dichloro-4-(6-(difluoromethyl)-3,5-dioxo-4,5-dihydro-1,2,4-triazin-2(3H)-yl)phenoxy)-2-hydroxybenzenesulfonamide], at THR beta-LBD, the “THRβ Emax” value is recorded as “A (90~110)” and the half-maximal effective concentration (EC50) is under 2 nM. Moreover, at THR alpha-LBD, the “THRα Emax” value is reported as “A (85~110)” and the concentration giving a half-maximal response (EC50) was 2 to 200 nM.

For the compound `O=c1[nH]c(=O)n(-c2cc(Cl)c(Oc3cc(S(=O)(=O)C4CC4)c(O)cn3)c(Cl)c2)nc1C(F)F` [Compound 128, 2-[3,5-dichloro-4-[(4-cyclopropylsulfonyl-5-hydroxy-2-pyridyl)oxy]phenyl]-6-(difluoromethyl)-1,2,4-triazine-3,5-dione], at THR beta-LBD, the “THRβ Emax” value is reported as “B (75~90)” and the EC50 is under 2 nM. For the same compound, on THR alpha-LBD, the “THRα Emax” value is recorded as “A (85~110)” and the EC50 lay in the range of 2 to 200 nM.

As to `O=C(NC1CCC1)c1cc(Oc2c(Cl)cc(-n3nc(C(F)F)c(=O)[nH]c3=O)cc2Cl)c(F)cc1O` [Compound 11, N-cyclobutyl-5-[2,6-dichloro-4-[6-(difluoromethyl)-3,5-dioxo-1,2,4-triazin-2-yl]phenoxy]-4-fluoro-2-hydroxy-benzamide], on THR beta-LBD, the “THRβ Emax” value is listed as “A (90~110)” and the concentration for a half-maximal effect (EC50) was over 100 nM. For the same compound, on THR alpha-LBD, the “THRα Emax” value is “B (40~85)” and the EC50 is over 1000 nM.

As for `O=c1[nH]c(=O)n(-c2cc(Cl)c(Oc3ccc(O)c([S@TB3](=O)(=O)N4CCOCC4)c3)c(Cl)c2)nc1C(F)F` [Compound 15, 2-(3,5-dichloro-4-(4-hydroxy-3-(morpholinosulfonyl)phenoxy)phenyl)-6-(difluoromethyl)-1,2,4-triazine-3,5(2H,4H)-dione], at THR beta-LBD, the “THRβ Emax” value was “B (75~90)” and the EC50 is under 2 nM. Further, at THR alpha-LBD, the “THRα Emax” value was “B (40~85)” and the EC50 is under 2 nM.

As for `O=c1[nH]c(=O)n(-c2cc(Cl)c(Oc3cc(S(=O)(=O)NC45CC(O)(C4)C5)c(O)cn3)c(Cl)c2)nc1C(F)F` [Compound 142, 2-(2,6-dichloro-4-(6-(difluoromethyl)-3,5-dioxo-4,5-dihydro-1,2,4-triazin-2(3H)-yl)phenoxy)-5-hydroxy-N-(3-hydroxybicyclo[1.1.1]pentan-1-yl)pyridine-4-sulfonamide], on THR beta-LBD, the “THRβ Emax” value was “B (75~90)” and the 50% effective concentration (EC50) was in the range of 20 to 100 nM. Besides, on THR alpha-LBD, the “THRα Emax” value is “B (40~85)” and the concentration for a half-maximal effect (EC50) lay within 200 to 1000 nM.

`CS(=O)(=O)[C@H]1CCN(S(=O)(=O)c2cc(Oc3c(Cl)cc(-n4nc(C(F)F)c(=O)[nH]c4=O)cc3Cl)ccc2O)C1` [Compound 39, (S)-2-(3,5-dichloro-4-(4-hydroxy-3-((3-(methylsulfonyl)pyrrolidin-1-yl)sulfonyl)phenoxy)phenyl)-6-(difluoromethyl)-1,2,4-triazine-3,5(2H,4H)-dione]: on THR beta-LBD, the “THRβ Emax” value is recorded as “C (<75)” and the EC50 is under 2 nM. On THR alpha-LBD, the “THRα Emax” value was “B (40~85)” and the EC50 lay in the range of 2 to 200 nM.

For the compound `O=c1[nH]c(=O)n(-c2cc(Cl)c(Oc3ccc(O)c(S(=O)(=O)N[C@@H]4CCN(S(=O)(=O)C5CC5)C4)c3)c(Cl)c2)nc1C(F)F` [Compound 48, (R)-N-(1-(cyclopropylsulfonyl)pyrrolidin-3-yl)-5-(2,6-dichloro-4-(6-(difluoromethyl)-3,5-dioxo-4,5-dihydro-1,2,4-triazin-2(3H)-yl)phenoxy)-2-hydroxybenzenesulfonamide], on THR beta-LBD, the “THRβ Emax” value is recorded as “C (<75)” and the 50% effective concentration (EC50) fell in the range of 2 to 20 nM. Also, at THR alpha-LBD, the “THRα Emax” value is listed as “B (40~85)” and the concentration for a half-maximal effect (EC50) lay in the range of 200 to 1000 nM.

On to `O=c1[nH]c(=O)n(-c2cc(Cl)c(Oc3cc(S(=O)(=O)NC45CCC(O)(CC4)C5)c(O)cn3)c(Cl)c2)nc1C(F)F` [Compound 160, 2-(2,6-dichloro-4-(6-(difluoromethyl)-3,5-dioxo-4,5-dihydro-1,2,4-triazin-2(3H)-yl)phenoxy)-5-hydroxy-N-(4-hydroxybicyclo[2.2.1]heptan-1-yl)pyridine-4-sulfonamide], for which, at THR beta-LBD, the “THRβ Emax” value is given as “B (75~90)” and the EC50 was 20 to 100 nM. On THR alpha-LBD, the “THRα Emax” value is “B (40~85)” and the 50% effective concentration (EC50) is over 1000 nM.

For `O=C(c1cc(Oc2c(Cl)cc(-n3nc(Cl)c(=O)[nH]c3=O)cc2Cl)ccc1O)N1C[C@@H]2CC[C@H]1C2` (single isomer, unassigned) [Compound 8], on THR beta-LBD, the “THRβ Emax” value was “B (75~90)” and the EC50 was under 2 nM. Also, on THR alpha-LBD, the “THRα Emax” value is given as “B (40~85)” and the 50% effective concentration (EC50) was in the range of 2 to 200 nM.

`O=c1[nH]c(=O)n(-c2cc(Cl)c(Oc3cnc(O)c(S(=O)(=O)NC4CCC4)c3)c(Cl)c2)nc1C(F)F` [Compound 64, N-cyclobutyl-5-[2,6-dichloro-4-[6-(difluoromethyl)-3,5-dioxo-1,2,4-triazin-2-yl]phenoxy]-2-hydroxy-pyridine-3-sulfonamide]: on THR beta-LBD, the “THRβ Emax” value is “B (75~90)” and the concentration giving a half-maximal response (EC50) is over 100 nM. At THR alpha-LBD, the “THRα Emax” value is “C (<40)” and the EC50 is over 1000 nM.

On to `O=c1[nH]c(=O)n(-c2cc(Cl)c(Oc3cc(S(=O)(=O)N[C@H]4CC[C@@H](O)CC4)c(O)cn3)c(Cl)c2)nc1C(F)F` [Compound 144, 2-(2,6-dichloro-4-(6-(difluoromethyl)-3,5-dioxo-4,5-dihydro-1,2,4-triazin-2(3H)-yl)phenoxy)-5-hydroxy-N-((1s,4s)-4-hydroxycyclohexyl)pyridine-4-sulfonamide], for which, on THR beta-LBD, the “THRβ Emax” value is recorded as “C (<75)” and the EC50 was 20 to 100 nM. At THR alpha-LBD, the “THRα Emax” value is on record as “C (<40)” and the EC50 was over 1000 nM.

Take `O=c1[nH]c(=O)n(-c2cc(Cl)c(Cc3cc(S(=O)(=O)N[C@H]4C[C@H](O)C4)c(O)cn3)c(Cl)c2)nc1C(F)F` [Compound 156, 2-(2,6-dichloro-4-(6-(difluoromethyl)-3,5-dioxo-4,5-dihydro-1,2,4-triazin-2 (3H)-yl)benzyl)-5-hydroxy-N-((1r,3r)-3-hydroxycyclobutyl)pyridine-4-sulfonamide]: at THR beta-LBD, the “THRβ Emax” value is listed as “A (90~110)” and the EC50 is 2 to 20 nM. For the same compound, on THR alpha-LBD, the “THRα Emax” value is reported as “B (40~85)” and the EC50 was over 1000 nM.
